# Patent US20230094922A1, “METHODS OF THERAPEUTIC PROGNOSTICATION” (GENETIKAPLUS LTD., priority 2020, published 2023)
# Test system: iPSC-derived cortical neurons
# Assay: Pre- and post-synaptic marker (Synapsin, PSD95) puncta and colocalization imaging analysis
# Format: cell-based, human
# Conditions: for intact synapses (colocalization of pre- and post-synaptic terminals), treated vs untreated: 7 days after treatment (Bupropion also 3 days)
# Description: iPSC differentiation into neurons-iPSCs were seeded at a density of 3×10^6 cells/well on a hESC-qualified Matrigel pre-coated 6-well plate and incubated at 37° C., 5% CO2 overnight. Differentiation was initiated the following day (day 0) after verifying that 100% confluency was reached. Differentiation media was added daily according to the following order: […]7 (day 15 onward) similar to a previously published protocol developed by for rapid differentiation to cortical neurons. The components of the described media, Q1-7, are provided in Appendix 1. Cells were assessed for differentiation efficiency and cell death on a daily basis. On day 9, differentiated neurons were re-plated on either 96-well plates (destined for staining) or 12-well plates (destined for RNA extraction) that were coated with 15 μg/mL Poly-ornithine diluted in PBS (overnight incubation at 37° C.), followed by 1 μg/mL Laminin and 2 μg/mL Fibronectin diluted in PBS (overnight incubation at 37° C.): Neurons were first rinsed with pre-warmed PBS and 1 ml/well of Accutase was added for 35 minutes at 37° C., 5% CO2. DNAse1 (0.5 mg/mL) was then added for 10 additional minutes. 3 ml of pre-warmed Neurobasal media was added to each well and neurons were gently collected using a 5 ml […]. Wells were then verified for the presence of any remaining neurons. Neurons were spun down and resuspended in Q6 media. Neurons were seeded at a density of 150,000 cells/cm^2 placed back at 37° C. Following four hours of incubation, media was changed to Q6 media (150 μl per 96-well and 1 ml per 12-well). […] For dendritic arborization analysis, pre/post-synaptic markers and colocalization analysis; α-Syn, PSD95 and MAP2 primary antibodies were used. Following washes, fluorophore-coupled secondary antibodies were incubated in the blocking solution for 1 hour at room temperature. The cells were counter-stained with 4',6-diamidino-2-phenylindole (DAPI) for nuclei detection for 15 minutes at room temperature followed by washes with PBS. Imaging was performed using Nikon Spinning Disk Confocal microscope. For imaging of pre- and post-synaptic markers, images were acquired with a 100× objective in z-stacks. For dendritic arborization analysis, images were acquired with a 20× objective in z-stacks. For imaging of dendritic spines, during culture treatment described in materials and methods, cells were infected at Day 20 with human syn-GFP or mKate virus and stained for GFP or mKate. Cells were fixed as described at day 35 and stained with antibodies against GFP or mKate respectively. Images were acquired using the Nikon Confocal Alit with a 60× objective and a 2× digital zoom in z-stacks and using the Nikon spinning disk Microscope with a 100× objective in z-stacks. Neuronal and synaptic morphology was assessed using the Neurolucida software, pre- and post-synaptic marker analysis was performed using CellProfiler and total dendritic length was measured using Fiji software. Immunohistochemical examination was carried out on the induced neuronal cells.
smiles,measurement,setting,value
"CNCCC=C1c2ccccc2CCc2ccccc21 [Nortriptyline, 1-Propanamine, 3-(10,11-dihydro-5H-dibenzo[a,d]cyclohepten-5-ylidene)-N-methyl-]","density of post-synaptic terminals (PSD95 puncta), responders vs non-responders",after treatment,increase in density was also present
same,"intact synapses, responders vs non-responders",after treatment,significantly more intact synapses
same,"intact synapses (colocalization of pre- and post-synaptic terminals), treated vs untreated",neurons from non-responders,no change or even a slight decrease
same,"density of post-synaptic terminals (distance between PSD95 puncta), after vs before treatment","neurons from responders, 7 days after treatment",significant increase in density
same,"intact synapses (colocalization of pre- and post-synaptic terminals), treated vs untreated",neurons from responders,significantly upregulated
